Measured values taken from EP4813993A1, “COMPOUND, PREPARATION METHOD THEREFOR, AND USE THEREOF” (Sichuan Kelun Pharmaceutical Research Institute Co., Ltd., priority 2023, dated 2025).

Tests used:
[1] = system: spinal nerve ligation model (SNL); assay: Rat spinal nerve ligation model (SNL), Von Frey test; assay type: in vivo, SD rats; conditions: for PWT 50% value (g) Post-surgery, Preadministration / PWT 50% value (g) Pre-surgery / PWT 50% value (g) Time 0.5 h / PWT 50% value (g) Time 2 h / PWT 50% value (g) Time 4 h / PWT 50% value (g) Time 6 h / PWT 50% value (g) Time 8 h / PWT 50% value (g) AUC0-8h: SD rats SNL, Mean + SEM, n = 10; for PWT 50% value (g) Post-surgery, Preadministration: baseline before administration; for PWT 50% value (g) Pre-surgery: baseline before surgery; for PWT 50% value (g) Time 0.5 h: 0.5 h after administration; for PWT 50% value (g) Time 2 h: 2 h after administration; for PWT 50% value (g) Time 4 h: 4 h after administration; for PWT 50% value (g) Time 6 h: 6 h after administration; for PWT 50% value (g) Time 8 h: 8 h after administration
Experimental: Experimental Example 8: Pharmacodynamic effect study of compounds in rat spinal nerve ligation model (SNL) Experimental animals: SD rats, male, 180-220 g.
(§1) Compound preparation: 5% (final preparation volume) of DMSO was added to dissolve the test compound, and then 10% (final preparation volume) of Cremophor EL and 85% Saline were sequentially added.
SD rats were anesthetized with isoflurane via inhalation. Each rat was placed in a prone position, and the hair at the surgical site was shaved locally. The surgical site was disinfected with alcohol and iodophor. Under sterile conditions, a 3-4 cm longitudinal incision was made at the level of the lower lumbar/upper sacrum to expose the left paravertebral muscles. Using small sharp-blunt scissors, the paravertebral muscles were bluntly dissected, and the transverse process of L6 was excised. The L4 and L5 spinal nerves were isolated and exposed, and the L5 spinal nerve was ligated with 6-0 silk sutures. The surgical wound was treated with ceftriaxone for anti-inflammation and infection prevention. The muscles and skin were sutured layer by layer, followed by disinfection with iodophor. After the surgery, the animals were placed on a warm electric blanket for heat preservation and returned to the cages for rearing after complete recovery from anesthesia. Postoperative behavioral observations were performed.
(§2) 2. Administration and test
The Von Frey test was performed once before the surgery. On the 5th and 6th days after surgery, paw-lifting training was performed once each day. Animals with a baseline of 2-5 g were selected for enrollment and grouped based on the 50% PWT values, with 10 animals per group. The next day, a single dose was administered in a blinded manner. The 50% PWT of the animals was measured separately before administration (baseline) and at 0.5 h, 2 h, 4 h, 6 h, or 8 h after administration. The model control group was given normal saline, while the compound groups were given the compounds according to the administration doses in the table below.

incision pain model = assay: Incision pain model in SD rats, Von Frey test; assay type: in vivo
Experimental: Experimental Example 7: Pharmacodynamic effect study of compounds in incision pain model in SD rats
Experimental animals: SD rats, male, 180-220 g.
as §1
A plantar incision pain model was established in rats via surgery before the administration and test. Rats were placed in an anesthesia induction chamber and given 3%-4% isoflurane for anesthesia induction. After the anesthesia induction, a breathing mask was applied, and the isoflurane concentration was adjusted to 1%-2% to prevent the rats from suffering pain during the surgery. Each rat was placed in a supine position, and the surgical site was disinfected with alcohol and iodophor. Under sterile conditions, a 0.5 cm longitudinal incision was made on the left hind paw surface, 0.2 cm away from the heel, extending toward the toes. The skin and fascia were incised; the plantar muscle was separated, slightly lifted, and longitudinally incised. The skin was then sutured with 5-0 sutures and disinfected.
as §2
The Von Frey test was performed once before the surgery. On the second day after animal modeling, the test was repeated, and animals meeting the baseline requirements were selected for enrollment. The animals were randomly divided into 6 groups based on the 50% PWT values, with 10 animals per group. Administration was performed under a double-blind test protocol. The 50% PWT of the animals was measured separately before administration (baseline) and at 0.5 h, 2 h, 4 h, 6 h, or 8 h after administration, and a single dose was administered. The model control group was given normal saline, while the compound groups were given the compounds according to the administration doses in the table below.

[2] = Pharmacokinetic study in ICR mice; assay type: in vivo; conditions: male, mouse, plasma
[3] = Tissue distribution study (dorsal root ganglia) in ICR mice; assay type: in vivo; conditions: male, mouse, oral administration 20 mg/kg
Experimental: Experimental Example 4: Tissue distribution study of compounds in ICR mice
Experimental animals: ICR mice, male, 6-8 weeks old.
as §1
Experimental design: The test compounds were administered to ICR mice as a single dose via oral administration (20 mg/kg; n = 3, 3 time points). Blood samples were collected at 0.25 h, 2 h, and 12 h after oral administration, followed by sacrifice of the animals. Dorsal root ganglia (DRG) were collected, rinsed with ice-cold normal saline to remove residual blood, blotted dry with absorbent paper, and stored at -70 °C for analysis.
Sample test: The concentrations of the compound drugs in dorsal root ganglia were determined by the LC-MS/MS method.

**Q.** With COc1c(C2CC(C)(C(F)(F)F)SC2C(=O)Nc2ccnc(C(N)=O)c2)ccc(F)c1F (single isomer, unassigned) [Compound 139-A, 4-(3-(3,4-difluoro-2-methoxyphenyl)-5-methyl-5-(trifluoromethyl)tetrahydrothiophene-2-carboxamido)picolinamide] as the molecule, how does the “PWT 50% value (g) Post-surgery, Preadministration” value (shortened to “PWT 50% value (g) Post-surgery”) ([1]; 50 mg/kg group) read?
**A.** 2.68 ± 1.05 g

**Q.** And the “PWT 50% value (g) Pre-surgery” value ([1]; 50 mg/kg group)?
**A.** 14.94 ± 2.38 g

**Q.** What about the “PWT 50% value (g) Time 0.5 h” value ([1]; 50 mg/kg single dose) of the same molecule?
**A.** 5.78 ± 2.76 g

**Q.** What about the “PWT 50% value (g) Time 2 h” value ([1]; 50 mg/kg single dose) of the same molecule?
**A.** 8.76 ± 2.47 g

**Q.** And the “PWT 50% value (g) Time 4 h” value ([1]; 50 mg/kg single dose)?
**A.** 7.73 ± 4.32 g

**Q.** What about the “PWT 50% value (g) Time 6 h” value ([1]; 50 mg/kg single dose) of the same molecule?
**A.** 4.9 ± 1.61 g

**Q.** And the “PWT 50% value (g) Time 8 h” value ([1]; 50 mg/kg single dose)?
**A.** 3.57 ± 1.44 g

**Q.** What about the “PWT 50% value (g) AUC0-8h” value ([1]; 50 mg/kg single dose) of the same molecule?
**A.** 50.59 ± 15.71 g

**Q.** What about the “PWT 50% value (g) Post-surgery” value ([1]; 125 mg/kg group) of the same molecule?
**A.** 2.68 ± 1 g

**Q.** What about the “PWT 50% value (g) Pre-surgery” value ([1]; 125 mg/kg group) of the same molecule?
**A.** 13.83 ± 3.18 g

**Q.** And the “PWT 50% value (g) Time 0.5 h” value ([1]; 125 mg/kg single dose)?
**A.** 6.96 ± 3.34 g

**Q.** And the “PWT 50% value (g) Time 2 h” value ([1]; 125 mg/kg single dose)?
**A.** 9.61 ± 3.73 g

**Q.** And the “PWT 50% value (g) Time 4 h” value ([1]; 125 mg/kg single dose)?
**A.** 7.26 ± 3.19 g

**Q.** And the “PWT 50% value (g) Time 6 h” value ([1]; 125 mg/kg single dose)?
**A.** 5.01 ± 1.63 g

**Q.** What about the “PWT 50% value (g) Time 8 h” value ([1]; 125 mg/kg single dose) of the same molecule?
**A.** 3.88 ± 1.67 g

**Q.** And the “PWT 50% value (g) AUC0-8h” value ([1]; 125 mg/kg single dose)?
**A.** 52.87 ± 15.06 g

**Q.** What about the dose-effect relationship ([1]; rat SNL model) of the same molecule?
**A.** relatively good dose-effect relationship

**Q.** And the “differences compared with the model group” value ([1]; rat SNL model, all time points)?
**A.** significant differences compared with the model group at all time points

**Q.** And the “analgesic activity compared with VX-548” value (incision pain model; SD rats incision pain model, at the same dose)?
**A.** better analgesic activity than VX-548

**Q.** And the “PWT 50% value (g) Post-surgery” value (incision pain model; SD rats, 125 mg/kg group, baseline before administration, Mean + SEM, n = 10)?
**A.** 3.95 ± 1.12 g

**Q.** What about the “PWT 50% value (g) Pre-surgery” value (incision pain model; SD rats, 125 mg/kg group, baseline before surgery, Mean + SEM, n = 10) of the same molecule?
**A.** 14.4 ± 1.27 g

**Q.** What about the “PWT 50% value (g) Time 0.5 h” value (incision pain model; SD rats, 125 mg/kg single dose, 0.5 h after administration, Mean + SEM, n = 10) of the same molecule?
**A.** 7.46 ± 3.86 g

**Q.** And the “PWT 50% value (g) Time 2 h” value (incision pain model; SD rats, 125 mg/kg single dose, 2 h after administration, Mean + SEM, n = 10)?
**A.** 10.11 ± 3.83 g

**Q.** And the “PWT 50% value (g) Time 6 h” value (incision pain model; SD rats, 125 mg/kg single dose, 6 h after administration, Mean + SEM, n = 10)?
**A.** 6.28 ± 2.28 g

**Q.** And the “PWT 50% value (g) Time 8 h” value (incision pain model; SD rats, 125 mg/kg single dose, 8 h after administration, Mean + SEM, n = 10)?
**A.** 6.29 ± 2.6 g

**Q.** And the “PWT 50% value (g) AUC0-8h” value (incision pain model; SD rats, 125 mg/kg single dose, Mean + SEM, n = 10)?
**A.** 60.47 ± 11.72 g

**Q.** And the dose-effect relationship (incision pain model; rat incision pain model)?
**A.** relatively good dose-effect relationship

**Q.** What about the AUC(0-inf) ([2]; Oral administration (p.o.), 20 mg/kg) of the same molecule?
**A.** 24800 ng·h/mL

**Q.** And the AUC(0-inf) ([2]; iv, Injection (i.v.), 2 mg/kg)?
**A.** 3080 ng·h/mL

**Q.** And the concentration at 0.25 h ([3]; Time 0.25 h)?
**A.** 1920 ng/g

**Q.** What about the concentration at 2 h ([3]; Time 2 h) of the same molecule?
**A.** 9380 ng/g

**Q.** What about the concentration at 12 h ([3]; Time 12 h) of the same molecule?
**A.** 2600 ng/g
